Reference: patent US11072634B2, “Inhibitors of transglutaminases” (Zedira GmbH, priority 2016, dated 2021)

Tests used:
[1] = target: T1, recombinant human tissue transglutaminase (rhTG2) (Homo sapiens, UniProt P21980); experiment: Inhibition of rec. human tissue transglutaminase (fluorescence, Abz-APE(CAD-DNP)QEA-OH); type: biochemical
T1 construct: purchased Zedira 1022 (so in the source); T022)
T1 sequence (P21980 1-687): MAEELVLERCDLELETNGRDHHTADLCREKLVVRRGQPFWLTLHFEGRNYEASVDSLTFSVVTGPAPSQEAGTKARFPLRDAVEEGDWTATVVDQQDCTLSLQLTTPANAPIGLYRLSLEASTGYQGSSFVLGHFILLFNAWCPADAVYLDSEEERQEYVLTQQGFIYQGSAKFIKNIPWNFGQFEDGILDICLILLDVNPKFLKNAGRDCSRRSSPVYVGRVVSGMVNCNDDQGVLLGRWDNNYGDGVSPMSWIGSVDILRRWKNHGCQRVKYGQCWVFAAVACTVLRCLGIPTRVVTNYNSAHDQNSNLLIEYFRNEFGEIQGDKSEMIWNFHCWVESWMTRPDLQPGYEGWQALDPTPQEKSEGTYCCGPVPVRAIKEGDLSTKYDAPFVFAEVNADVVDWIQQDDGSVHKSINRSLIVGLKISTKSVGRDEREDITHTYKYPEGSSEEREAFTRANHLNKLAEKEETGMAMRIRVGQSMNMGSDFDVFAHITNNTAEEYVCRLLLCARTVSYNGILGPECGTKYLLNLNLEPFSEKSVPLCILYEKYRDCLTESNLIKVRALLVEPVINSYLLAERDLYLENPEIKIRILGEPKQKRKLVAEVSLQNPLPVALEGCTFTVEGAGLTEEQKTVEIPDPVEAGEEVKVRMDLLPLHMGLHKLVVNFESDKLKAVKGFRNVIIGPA
Procedure, shortened: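 His6-rhTG2 in a master mix (50 mM Tris-HCl pH 7.4, 7.5 mM CaCl2, 150 mM NaCl, 5 mM DTT, 13.4 mM glycine methylester, 50 μM Abz-APE(CAD-DNP)QEA-OH) was added to serially diluted inhibitor. Fluorescence (ex 313/em 418 nm) was followed at 37 °C for 20 min. IC50 came from the 10–20 min slope relative to the 2% DMSO control.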

NRK52E cells = experiment: Extracellular matrix protein deposition of NRK52E cells (DC-protein-assay); type: cell-based, Rattus norvegicus; details: hyperglycemic glucose concentrations
Experimental: Fibrosis is a hallmark in diabetic nephropathy and chronic kidney diseases. Proximal tubular epithelial cells show increased TG2 activity and increased extracellular matrix proteins (ECM) accumulation under hyperglycemic conditions. ECM accumulation is a hall mark of fibrosis. […] TG2-activity and ECM-accumulation was measured. Rattus norvegicus kidney derived cell line NRK52E was grown at 37° C. in a humidified atmosphere at 5% (v/v) CO2 in DMEM (Dulbecco's modified Eagle's medium) containing 100 μg/mL streptomycin, 100 units/ml penicillin, […], and 10% (v/v) fetal calf serum. For simulation of normal physiological conditions 6 mM D-glucose were added to the medium, while addition of 24 mM and 36 mM D-glucose simulated hyperglycemic conditions. Reversible TG2 inhibitor E06 in the concentrations indicated in FIG. 1A was added at the time of plating to the medium. Reversible TG2 inhibitor E22 in the concentrations indicated in FIG. 2A was added at the time of plating to the medium.
For the determination of extracellular matrix proteins (ECM) deposition, cells grown in 10 cm Petri-dishes were removed with 1 mL sodium deoxycholate (0.1%) -EDTA (2 mM)-solution. ECM proteins remaining on the plate were solubilized by digestion with trypsin (0.2 mg/mL) -EDTA (2 mM) solution. […] Protein concentration was determined using the DC-protein-assay (BioRad, #5000111).

| IC50 ([1]; Table 1, TG2 inhibitors) [nM] | IC50 ([1]; Table 2, TG2 inhibitors) [nM] | Compound | increase of ECM (extracellular matrix protein deposition) (NRK52E cells) |
| --- | --- | --- | --- |
| 70 |  | COC(=O)[C@H](CC(C)C)NC(=O)[C@@H]1CCCN1C(=O)[C@@H](NC(=O)[C@H](CCC(=O)C(N)=O)NC(=O)OCc1ccccc1)C(C)C [Compound E02, (S)-methyl 2-((S)-1-((S)-2-((S)-6-amino-2-(benzyloxycarbonylamino)-5,6-dioxo-hexanamido)-3-methylbutanoyl)pyrrolidine-2-carboxamido)-4-methylpentanoate] |  |
| 100 |  | CC(=O)N[C@@H](CCC(=O)C(N)=O)C(=O)N1CCN(c2ccccc2Cl)CC1 [Compound E06, (S)-5-acetamido-6-(4-(2-chlorophenyl)piperazin-1-yl)-2,6-dioxohexanamide] | reduced in a dose dependent manner |
| 100 |  | CC(=O)N1CCC[C@H]1C(=O)N[C@@H](CCC(=O)C(N)=O)C(=O)N1CCN(c2ncccc2C)CC1 [Compound E07, (S)-1-acetyl-N—((S)-6-amino-1-(4-(3-methylpyridin-2-yl)piperazin-1-yl)-1,5,6-trioxohexan-2-yl)pyrrolidine-2-carboxamide] |  |
|  | 85 | CCCCCNC(=O)C(=O)CC[C@H](NC(=O)[C@@H]1CCCN1C(C)=O)C(=O)Nc1cccn(CC(=O)NCC(CC)CC)c1=O [Compound E22, (S)-2-((S)-1-acetylpyrrolidine-2-carboxamido)-N1-(1-(2-(2-ethylbutylamino)-2-oxoethyl)-2-oxo-1,2-dihydropyridin-3-yl)-5-oxo-N6-pentylhexanediamide] | reduced in a dose dependent manner |
